Measured values taken from patent publication US12064426B2, “Selective inhibitors of ROCK1 and ROCK2 protein kinases and uses thereof” (GENOSCO Inc., priority 2021, dated 2024).
pIC50: −log10 of the molar value.

What was measured:
[1] = biological target: T1, Recombinant ROCK2 (amino acids 5-554) (Homo sapiens, UniProt O75116); assay: ROCK inhibition assay, LANCE Ultra TR-FRET kinase assay (ROCK2); type: biochemical; conditions: 4 μM ATP, 50 nM ULight-CREBtide substrate
T1 construct: ROCK2 (amino acids 5-554); by word order, ROCK2 from SignalChem
T1 sequence (O75116 5-554): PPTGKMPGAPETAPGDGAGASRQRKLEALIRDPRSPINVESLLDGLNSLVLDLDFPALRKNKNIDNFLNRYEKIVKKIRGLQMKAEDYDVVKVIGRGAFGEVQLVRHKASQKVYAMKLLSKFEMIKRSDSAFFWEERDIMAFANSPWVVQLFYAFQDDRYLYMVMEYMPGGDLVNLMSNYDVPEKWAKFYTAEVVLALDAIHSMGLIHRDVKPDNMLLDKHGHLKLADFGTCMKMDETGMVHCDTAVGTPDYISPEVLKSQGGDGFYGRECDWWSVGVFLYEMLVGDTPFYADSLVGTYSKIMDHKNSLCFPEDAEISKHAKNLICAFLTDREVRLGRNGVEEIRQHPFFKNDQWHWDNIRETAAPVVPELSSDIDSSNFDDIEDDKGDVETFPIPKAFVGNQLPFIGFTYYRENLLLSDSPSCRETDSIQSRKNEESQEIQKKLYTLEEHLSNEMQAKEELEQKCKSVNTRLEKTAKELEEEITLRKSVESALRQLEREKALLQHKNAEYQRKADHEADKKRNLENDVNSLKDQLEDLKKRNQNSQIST
Summary of the method: (§1)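 LANCE Ultra TR-FRET kinase assay with recombinant ROCK1 (aa 1-477) or ROCK2 (aa 5-554), 50 nM ULight-CREBtide and ATP at 1 μM (ROCK1) or 4 μM (ROCK2) in HEPES pH 7.5 with MgCl2, 1 h at room temperature. EDTA stop with Eu anti-phospho-CREB Ser133 antibody; 665/615 nm read gives IC50.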

[2] = biological target: T2, Recombinant ROCK1 (amino acids 1-477) (Homo sapiens, UniProt Q13464); assay: ROCK inhibition assay, LANCE Ultra TR-FRET kinase assay (ROCK1); type: biochemical; conditions: 1 μM ATP, 50 nM ULight-CREBtide substrate
T2 construct: Recombinant ROCK1 (amino acids 1-477); by word order, ROCK1 from Carna Biosciences
T2 sequence (Q13464 1-477): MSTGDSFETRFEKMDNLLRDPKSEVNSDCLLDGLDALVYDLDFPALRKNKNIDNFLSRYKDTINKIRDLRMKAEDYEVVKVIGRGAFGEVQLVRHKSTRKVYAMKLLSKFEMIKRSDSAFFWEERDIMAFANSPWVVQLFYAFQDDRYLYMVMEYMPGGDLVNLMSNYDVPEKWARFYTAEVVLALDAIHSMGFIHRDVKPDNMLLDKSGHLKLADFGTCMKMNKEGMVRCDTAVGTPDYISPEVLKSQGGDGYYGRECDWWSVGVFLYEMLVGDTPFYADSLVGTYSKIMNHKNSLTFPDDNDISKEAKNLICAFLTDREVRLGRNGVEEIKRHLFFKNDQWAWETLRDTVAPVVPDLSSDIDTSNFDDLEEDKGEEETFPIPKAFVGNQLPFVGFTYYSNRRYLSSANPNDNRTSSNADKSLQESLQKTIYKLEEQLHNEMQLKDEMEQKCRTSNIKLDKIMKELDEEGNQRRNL
Summary of the method: as §1

pIC50 [1] | pIC50 [2] | Structure (SMILES)
> 8.00 | > 8.00 | CNC(=O)c1cccc(Cn2cc(C(C)O)c3cc(-c4c[nH]nc4C(F)F)ccc3c2=O)c1 (stereo not drawn) [Compound 535]
> 8.00 | > 8.00 | CC(O)c1cn(Cc2cccc(C(=O)NC3CCOCC3)c2)c(=O)c2ccc(-c3c[nH]nc3C(F)F)cc12 (stereo not drawn) [Compound 536]
> 8.00 | 7.00 to 7.96 | CNC(=O)c1cccc(Cn2cc(C(C)O)c3cc(-c4conc4C)ccc3c2=O)c1 (stereo not drawn) [Compound 537]
> 8.00 | > 8.00 | Cc1nocc1-c1ccc2c(=O)n(Cc3cccc(C(=O)NCc4ccc(F)nc4)c3)cc(C(C)O)c2c1 (stereo not drawn) [Compound 538]
> 8.00 | 7.00 to 7.96 | CNC(=O)c1cccc(Cn2cc(C(C)O)c3cc(-c4ccnn4C)ccc3c2=O)c1 (stereo not drawn) [Compound 540]
> 8.00 | > 8.00 | CC(O)c1cn(Cc2cccc(C(=O)NCCN(C)C)c2)c(=O)c2ccc(-c3c[nH]nc3Cl)cc12 (stereo not drawn) [Compound 542]
> 8.00 | 7.00 to 7.96 | CNC(=O)c1cccc(Cn2cc(C(C)O)c3cc(-c4ccnc(N)c4)ccc3c2=O)c1 (stereo not drawn) [Compound 545]
> 8.00 | > 8.00 | CNC(=O)c1cccc(Cn2cc(CCN(C)C)c3cc(-c4cn[nH]c4C(F)(F)F)ccc3c2=O)c1 [Compound 548]
> 8.00 | 7.00 to 7.96 | CNC(=O)c1cccc(C(C)n2cc(CCO)c3cc(-c4cn[nH]c4C(F)(F)F)ccc3c2=O)c1 (stereo not drawn) [Compound 549]
7.00 to 8.00 | 6.30 to 7.00 | CNC(=O)c1cccc(Cn2cc(CCO)c3cc(-c4conc4C)ccc3c2=O)c1 [Compound 552]
> 8.00 | 7.00 to 7.96 | CNC(=O)c1cccc(C(C)n2cc(CCO)c3cc(-c4cn[nH]c4F)ccc3c2=O)c1 (stereo not drawn) [Compound 554]
> 8.00 | 7.00 to 7.96 | CNC(=O)c1cccc(Cn2cc(CCO)c3cc(-c4cn[nH]c4F)ccc3c2=O)c1 [Compound 555]

Second part, the compound before the results:

Structure (SMILES) | pIC50 [1] | pIC50 [2]
Cc1nocc1-c1ccc2c(=O)n(Cc3cccc(C(=O)NCc4ccccc4)c3)cc(C(C)O)c2c1 (stereo not drawn) [Compound 539] | > 8.00 | 7.00 to 7.96
CNC(=O)c1cccc(Cn2cc(C(C)O)c3cc(-c4c[nH]nc4Cl)ccc3c2=O)c1 (stereo not drawn) [Compound 541] | > 8.00 | 7.00 to 7.96
CC(O)c1cn(Cc2cccc(C(=O)NCCc3ccccn3)c2)c(=O)c2ccc(-c3c[nH]nc3Cl)cc12 (stereo not drawn) [Compound 543] | > 8.00 | > 8.00
CNC(=O)c1cccc(Cn2cc(C(C)O)c3cc(-c4c[nH]nc4N)ccc3c2=O)c1 (stereo not drawn) [Compound 544] | > 8.00 | 7.00 to 7.96
CNC(=O)c1cccc(Cn2cc(CCO)c3cc(-c4cn[nH]c4C(F)(F)F)ccc3c2=O)c1 [Compound 546, 3-((4-(2-hydroxyethyl)-1-oxo-6-(5-(trifluoromethyl)-1H-pyrazol-4-yl)isoquinolin-2(1H)-yl)methyl)-N-methylbenzamide] | > 8.00 | 7.00 to 7.96
CNC(=O)c1cccc(Cn2cc(CC(C)O)c3cc(-c4cn[nH]c4C(F)(F)F)ccc3c2=O)c1 (stereo not drawn) [Compound 547] | > 8.00 | 7.00 to 7.96
CNC(=O)c1cccc(Cn2cc(CCO)c3cc(-c4cn[nH]c4Cl)ccc3c2=O)c1 [Compound 550] | > 8.00 | 7.00 to 7.96
CNC(=O)c1cccc(C(C)n2cc(CCO)c3cc(-c4cn[nH]c4Cl)ccc3c2=O)c1 (stereo not drawn) [Compound 551] | > 8.00 | 7.00 to 7.96
CNC(=O)c1cccc(C(C)n2cc(CCO)c3cc(-c4conc4C)ccc3c2=O)c1 (stereo not drawn) [Compound 553] | 7.00 to 8.00 | 6.30 to 7.00
CNC(=O)c1cccc(Cn2cc(CCO)c3cc(-c4ccnc(N)c4)ccc3c2=O)c1 [Compound 558] | 7.00 to 8.00 | > 8.00
CNC(=O)c1cccc(Cn2cc(CC(C)O)c3cc(-c4cn[nH]c4C(F)F)ccc3c2=O)c1 (stereo not drawn) [Compound 559] | > 8.00 | 7.00 to 7.96
CNC(=O)c1cccc(Cn2cc(CC(C)O)c3cc(-c4cn[nH]c4Cl)ccc3c2=O)c1 (stereo not drawn) [Compound 560] | > 8.00 | > 8.00
